Results as given in ChEMBL document CHEMBL3217595, “RCAI-133, an N-methylated analogue of KRN7000, activates mouse natural killer T cells to produce Th2-biased cytokines” (2013).
Active and inactive are the calls of the source. The rule behind the calls is not given here.

Legend:
Mus musculus [1] = test: Immunostimulatory activity in C57BL/6 mouse assessed as induction of IL-4 production in serum at 2 ug, iv administered through PBS solution; type: functional, organism-based
Mus musculus [2] = test: Immunostimulatory activity in C57BL/6 mouse assessed as induction of IFN-gamma production in serum at 2 ug, iv administered through PBS solution by ELISA; type: functional, organism-based
Mus musculus [3] = test: Immunostimulatory activity in C57BL/6 mouse assessed as induction of IL-4/IFN-gamma ratio in serum at 2 ug, iv administered through PBS solution; type: functional

| SMILES | Activity (Mus musculus [1]) | Activity (Mus musculus [2]) | Ratio (Mus musculus [3]) |
| --- | --- | --- | --- |
| CCCCCCCCCCCCCCCCC(C)(C)C(=O)N[C@@H](CO[C@H]1O[C@H](CO)[C@H](O)[C@H](O)[C@H]1O)[C@H](O)[C@H](O)CCCCCCCCCCCCCC | Active | Active |  |
| CCCCCCCCCCCCCCCC[C@@H](C)C(=O)N[C@@H](CO[C@H]1O[C@H](CO)[C@H](O)[C@H](O)[C@H]1O)[C@H](O)[C@H](O)CCCCCCCCCCCCCC | Active | Active |  |
| CCCCCCCCCCCCCCCCC(C)(C)C(=O)N(C)[C@@H](CO[C@H]1O[C@H](CO)[C@H](O)[C@H](O)[C@H]1O)[C@H](O)[C@H](O)CCCCCCCCCCCCCC | inactive | inactive |  |
| CCCCCCCCCCCCCCCC[C@@H](O)C(=O)N(C)[C@@H](CO[C@H]1O[C@H](CO)[C@H](O)[C@H](O)[C@H]1O)[C@H](O)[C@H](O)CCCCCCCCCCCCCC | inactive | inactive |  |
| CCCCCCCCCCCCCCCCCC(=O)N(C)[C@@H](CO[C@H]1O[C@H](CO)[C@H](O)[C@H](O)[C@H]1O)[C@H](O)[C@H](O)CCCCCCCCCCCCCC | inactive | inactive | 0.0095 |
| CCCCCCCCCCCCCCCC[C@@H](C)C(=O)N(C)[C@@H](CO[C@H]1O[C@H](CO)[C@H](O)[C@H](O)[C@H]1O)[C@H](O)[C@H](O)CCCCCCCCCCCCCC | inactive | inactive |  |
| CCCCCCCCCCCCCCCCCC(=O)N[C@@H](CO[C@H]1O[C@H](CO)[C@H](O)[C@H](O)[C@H]1O)[C@H](O)[C@H](O)CCCCCCCCCCCCCC | Active | Active |  |
| CCCCCCCCCCCCCCCCCCCCCCCCCC(=O)N(C)[C@@H](CO[C@H]1O[C@H](CO)[C@H](O)[C@H](O)[C@H]1O)[C@H](O)[C@H](O)CCCCCCCCCCCCCC |  |  | 0.017 |
| CCCCCCCCCCCCCCCCCCCCCCCCCC(=O)N[C@@H](CO[C@H]1O[C@H](CO)[C@H](O)[C@H](O)[C@H]1O)[C@H](O)[C@H](O)CCCCCCCCCCCCCC [RGI-7000] |  |  | 0.0043 |
| CCCCCCCCCCCCCCCC[C@@H](O)C(=O)N[C@@H](CO[C@H]1O[C@H](CO)[C@H](O)[C@H](O)[C@H]1O)[C@H](O)[C@H](O)CCCCCCCCCCCCCC | Active | Active |  |
